Target: T1, human GlyT1c transporter (Homo sapiens, UniProt P48067)
T1 construct: expressed in transfected cells; host or cells: CHO cells (recombinant; line hGlyT1c_5_CHO is named for the uptake assay)
T1 sequence (P48067 1-706): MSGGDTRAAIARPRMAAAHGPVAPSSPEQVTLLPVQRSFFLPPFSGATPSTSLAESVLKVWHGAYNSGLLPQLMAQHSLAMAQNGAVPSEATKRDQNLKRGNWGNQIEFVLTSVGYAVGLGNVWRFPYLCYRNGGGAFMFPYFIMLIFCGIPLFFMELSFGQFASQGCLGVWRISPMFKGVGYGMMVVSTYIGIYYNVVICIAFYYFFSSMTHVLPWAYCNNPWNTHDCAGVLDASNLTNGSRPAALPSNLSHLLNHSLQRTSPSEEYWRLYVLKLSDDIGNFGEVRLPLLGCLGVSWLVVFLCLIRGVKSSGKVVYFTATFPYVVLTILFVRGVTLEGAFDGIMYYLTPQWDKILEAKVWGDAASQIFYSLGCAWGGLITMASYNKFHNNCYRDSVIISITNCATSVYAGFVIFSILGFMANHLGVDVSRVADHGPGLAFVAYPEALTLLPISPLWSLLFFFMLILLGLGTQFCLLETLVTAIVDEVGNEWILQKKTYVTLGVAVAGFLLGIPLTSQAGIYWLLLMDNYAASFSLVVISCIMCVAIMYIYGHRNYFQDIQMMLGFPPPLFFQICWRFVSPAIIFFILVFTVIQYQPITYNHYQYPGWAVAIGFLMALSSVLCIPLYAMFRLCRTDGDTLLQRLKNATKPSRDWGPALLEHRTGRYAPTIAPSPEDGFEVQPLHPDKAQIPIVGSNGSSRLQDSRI
Assay: Radioligand binding assay using recombinant CHO cell membranes expressing human GlyT1
Conditions: radioligand binding to human GlyT1c transporter-expressing membranes
From the text: 2. Radioligand binding assays using recombinant CHO cell membranes expressing human GlyT1: […]

`Cn1cnc(S(=O)(=O)N2C[C@@H](NCc3ccccc3Cl)[C@H](c3ccc(F)cc3)C2)c1` (relative stereo) [Example 260, trans-N-(2-chlorobenzyl)-4-(4-fluorophenyl)-1-[(1-methyl-1H-imidazol-4-yl)sulfonyl]pyrrolidin-3-amine] and `Cn1cnc(S(=O)(=O)N2C[C@H](NC(=O)Nc3ccccc3Cl)[C@@H](c3ccc(F)cc3)C2)c1` [Example 694, 1-(2-chlorophenyl)-3-{(3R,4S)-4-(4-fluorophenyl)-1-[(1-methyl-1H-imidazol-4-yl)sulfonyl]pyrrolidin-3-yl}urea] cannot be ordered by Ki: no more than 100 nM for the first, no more than 1000 nM for the second.

`Cn1cnc(S(=O)(=O)N2C[C@H](Nc3ccc4ccsc4c3)[C@@H](c3ccc(F)cc3)C2)c1` [Example 677, (3R,4S)-N-(1-benzothiophen-6-yl)-4-(4-fluorophenyl)-1-[(1-methyl-1H-imidazol-4-yl)sulfonyl]pyrrolidin-3-amine] and `Cn1cnc(S(=O)(=O)N2C[C@H](Nc3cccc(F)c3)[C@@H](c3ccc(F)cc3)C2)c1` [Example 353, (3R,4S)-N-(3-fluorophenyl)-4-(4-fluorophenyl)-1-[(1-methyl-1H-imidazol-4-yl)sulfonyl]pyrrolidin-3-amine] cannot be ordered by Ki: no more than 1000 nM for the first, no more than 100 nM for the second.

`Cn1cnc(S(=O)(=O)N2C[C@@H](Nc3cc(C#N)ccc3F)[C@H](c3ccccc3)C2)c1` (relative stereo) [Example 76, 4-fluoro-3-({trans-1-[(1-methyl-1H-imidazol-4-yl)sulfonyl]-4-phenylpyrrolidin-3-yl}amino)benzonitrile] and `Cn1cnc(S(=O)(=O)N2C[C@@H](Nc3ccc(Cl)c(C#N)c3)[C@H](c3ccccc3)C2)c1` (relative stereo) [Example 79, 2-chloro-5-({trans-1-[(1-methyl-1H-imidazol-4-yl)sulfonyl]-4-phenylpyrrolidin-3-yl}amino)benzonitrile] cannot be ordered by Ki: no more than 10000 nM for the first, no more than 1000 nM for the second.

`Cn1cnc(S(=O)(=O)N2C[C@@H](NCc3ccc(C(F)(F)F)cc3Cl)[C@H](c3ccccc3Cl)C2)c1` (relative stereo) [Example 285, trans-4-(2-chlorophenyl)-N-[2-chloro-4-(trifluoromethyl)benzyl]-1-[(1-methyl-1H-imidazol-4-yl)sulfonyl]pyrrolidin-3-amine] and `Cn1cnc(S(=O)(=O)N2C[C@@H](Nc3cccc(C(F)(F)F)c3)[C@H](c3ccccc3)C2)c1` (relative stereo) [Example 67, trans-1-[(1-methyl-1H-imidazol-4-yl)sulfonyl]-4-phenyl-N-[3-(trifluoromethyl)phenyl]pyrrolidin-3-amine] cannot be ordered by Ki: no more than 100 nM for the first, no more than 10 nM for the second.

`Cn1cnc(S(=O)(=O)N2C[C@H](Nc3cccc(-c4ccccn4)c3)[C@@H](c3ccccc3)C2)c1` [Example 802, (3R,4S)-1-[(1-methyl-1H-imidazol-4-yl)sulfonyl]-4-phenyl-N-[3-(pyridin-2-yl)phenyl]pyrrolidin-3-amine] and `Cn1cnc(S(=O)(=O)N2C[C@@H](Nc3ccccc3)[C@H](c3ccccc3F)C2)c1` (relative stereo) [Example 198, trans-4-(2-fluorophenyl)-1-[(1-methyl-1H-imidazol-4-yl)sulfonyl]-N-phenylpyrrolidin-3-amine] cannot be ordered by Ki: no more than 100 nM for the first, no more than 1000 nM for the second.

`CC(C)CCN[C@H]1CN(S(=O)(=O)c2cn(C)cn2)C[C@@H]1c1ccccc1` [Example 463, (3R,4S)-N-(3-methylbutyl)-1-[(1-methyl-1H-imidazol-4-yl)sulfonyl]-4-phenylpyrrolidin-3-amine] and `Cn1cnc(S(=O)(=O)N2C[C@H](Nc3cc(C(F)(F)F)ccn3)[C@@H](c3ccccc3)C2)c1` [Example 396, N-{(3R,4S)-1-[(1-methyl-1H-imidazol-4-yl)sulfonyl]-4-phenylpyrrolidin-3-yl}-4-(trifluoromethyl)pyridin-2-amine] cannot be ordered by Ki: no more than 1000 nM for the first, no more than 10 nM for the second.

`CCCCCCN(CCCCCC)[C@@H]1CN(S(=O)(=O)c2cn(C)cn2)C[C@H]1c1ncccc1F` (relative stereo) [Example 763, Trans-4-(3-fluoropyridin-2-yl)-N,N-dihexyl-1-[(1-methyl-1H-imidazol-4-yl)sulfonyl]pyrrolidin-3-amine] and `Cn1cnc(S(=O)(=O)N2C[C@@H](Nc3ccc(F)c(C(F)(F)F)c3)[C@H](c3ncccc3F)C2)c1` (relative stereo) [Example 767, Trans-4-(3-fluoropyridin-2-yl)-N-[4-fluoro-3-(trifluoromethyl)phenyl]-1-[(1-methyl-1H-imidazol-4-yl)sulfonyl]pyrrolidin-3-amine] cannot be ordered by Ki: no more than 1000 nM for the first, no more than 100 nM for the second.

`Cc1csc(S(=O)(=O)N2CC(Nc3ccc(F)c(F)c3)C(c3ccccc3)C2)c1` (stereo not shown) [Example 484, N-(3,4-difluorophenyl)-1-[(4-methylthiophen-2-yl)sulfonyl]-4-phenylpyrrolidin-3-amine] and `O=S(=O)(c1ccc(C(F)(F)F)nc1)N1CC(Nc2ccc(F)c(F)c2)C(c2ccccc2)C1` (stereo not shown) [Example 500, N-(3,4-difluorophenyl)-4-phenyl-1-{[6-(trifluoromethyl)pyridin-3-yl]sulfonyl}pyrrolidin-3-amino] cannot be ordered by Ki: no more than 10000 nM for the first, no more than 10000 nM for the second.

`Cn1cnc(S(=O)(=O)N2C[C@@H](CNc3cccc(Cl)c3)[C@H](c3ccc(F)cc3)C2)c1` (relative stereo) [Example 333, 3-Chloro-N-({trans-4-(4-fluorophenyl)-1-[(1-methyl-1H-imidazol-4-yl)sulfonyl]pyrrolidin-3-yl}methyl)aniline] and `Cn1cnc(S(=O)(=O)N2C[C@@H](CNc3ccc(F)c(OC(F)(F)F)c3)[C@H](c3ccc(F)cc3)C2)c1` (relative stereo) [Example 376, 4-fluoro-N-({trans-4-(4-fluorophenyl)-1-[(1-methyl-1H-imidazol-4-yl)sulfonyl]pyrrolidin-3-yl}methyl)-3-(trifluoromethoxy)aniline] cannot be ordered by Ki: no more than 1000 nM for the first, no more than 1000 nM for the second.

`Cn1cnc(S(=O)(=O)N2C[C@@H](C(=O)Nc3ccc(F)cc3)[C@H](c3ccc(F)cc3)C2)c1` (relative stereo) [Example 358, Trans-N,4-bis(4-fluorophenyl)-1-[(1-methyl-1H-imidazol-4-yl)sulfonyl]pyrrolidine-3-carboxamide] and `Cc1cccc(N[C@@H]2CN(S(=O)(=O)c3cn(C)cn3)C[C@H]2c2ccc(F)cc2)c1` (relative stereo) [Example 85, trans-4-(4-fluorophenyl)-1-[(1-methyl-1H-imidazol-4-yl)sulfonyl]-N-(3-methylphenyl)pyrrolidin-3-amine] cannot be ordered by Ki: no more than 100 nM for the first, no more than 10 nM for the second.

`Cn1cnc(S(=O)(=O)N2C[C@@H](COc3ccc(Cl)cc3Cl)[C@H](c3ccc(F)cc3)C2)c1` (relative stereo) [Example 246, 4-{[trans-3-[(2,4-dichlorophenoxy)methyl]-4-(4-fluorophenyl)pyrrolidin-1-yl]sulfonyl}-1-methyl-1H-imidazole] and `CCOCCNC[C@@H]1CN(S(=O)(=O)c2cn(C)cn2)C[C@H]1c1ccc(F)cc1` (relative stereo) [Example 598, 2-ethoxy-N-({trans-4-(4-fluorophenyl)-1-[(1-methyl-1H-imidazol-4-yl)sulfonyl]pyrrolidin-3-yl}methyl)ethanamine] cannot be ordered by Ki: no more than 100 nM for the first, no more than 10000 nM for the second.

`Cn1cnc(S(=O)(=O)N2C[C@@H](Nc3ccc(Cl)c(C(F)(F)F)c3)[C@H](C3CCCO3)C2)c1` (stereo partly drawn) [Example 618, (3S,4R)-N-[4-chloro-3-(trifluoromethyl)phenyl]-1-[(1-methyl-1H-imidazol-4-yl)sulfonyl]-4-(tetrahydrofuran-2-yl)pyrrolidin-3-amine] and `Cn1cnc(S(=O)(=O)N2C[C@@H](Nc3ccc(Cl)cc3)[C@H](c3ccccc3F)C2)c1` (relative stereo) [Example 202, trans-N-(4-chlorophenyl)-4-(2-fluorophenyl)-1-[(1-methyl-1H-imidazol-4-yl)sulfonyl]pyrrolidin-3-amine] cannot be ordered by Ki: no more than 1000 nM for the first, no more than 1000 nM for the second.

`Cn1cnc(S(=O)(=O)N2C[C@H](NCc3cccnc3-c3ccc(F)cc3)[C@@H](c3ccccc3)C2)c1` [Example 571, (3R,4S)-N-{[2-(4-fluorophenyl)pyridin-3-yl]methyl}-1-[(1-methyl-1H-imidazol-4-yl)sulfonyl]-4-phenylpyrrolidin-3-amine] and `Cn1cnc(S(=O)(=O)N2C[C@@H](Nc3cccc(C(C)(C)C)c3)[C@H](c3ccc(F)cc3)C2)c1` (relative stereo) [Example 171, trans-N-(3-tert-butylphenyl)-4-(4-fluorophenyl)-1-[(1-methyl-1H-imidazol-4-yl)sulfonyl]pyrrolidin-3-amine] cannot be ordered by Ki: no more than 10000 nM for the first, no more than 100 nM for the second.

`CC(C)CCCCCNC(=O)[C@@H]1CN(S(=O)(=O)c2cn(C)cn2)C[C@H]1c1ccc(F)cc1` (relative stereo) [Example 643, Trans-4-(4-fluorophenyl)-N-(6-methylheptyl)-1-[(1-methyl-1H-imidazol-4-yl)sulfonyl]pyrrolidine-3-carboxamide] gave a Ki of no more than 10000 nM.

Same assay, conditions: radioligand binding, recombinant CHO cell membranes expressing human GlyT1c

`Cn1cnc(S(=O)(=O)N2C[C@@H](Nc3cccc(OCC(F)(F)F)c3)[C@H](C3CCCCO3)C2)c1` (relative stereo) [Example 816, Trans-1-[(1-methyl-1H-imidazol-4-yl)sulfonyl]-4-(tetrahydro-2H-pyran-2-yl)-N-[3-(2,2,2-trifluoroethoxy)phenyl]pyrrolidin-3-amine] was tested, and the Ki was no more than 10 nM.

Reference: EP2970215B1, “PYRROLIDINE DERIVATIVES, PHARMACEUTICAL COMPOSITIONS CONTAINING THEM, AND THEIR USE IN THERAPY” (AbbVie Deutschland GmbH & Co. KG, priority 2013, dated 2014)
